How the values were obtained:
[1] = tested on: A549 cells; experiment: Changes in the intracellular cGMP level in response to natriuretic peptide stimulus, A549 cells; assay type: cell-based, human; conditions: 1×10^−11 M to 1×10^−6 M, 10 minutes, FIG. 1A
Procedure: Lung adenocarcinoma cell line, A549 cells, was obtained from ATCC (Manassas, Va.). The cells were cultured in DMEM culture medium (Invitrogen, Carlsbad, Va.) containing 10% FCS under 5% CO2 at 37° C. The amounts of the culture medium were 1.5 mL for each well of a 6-well dish, 400 μL for each well of a 24-well dish, and 150 μL for each well of a 96-well dish. In the Examples below, unless otherwise stated, the same culture medium and culture conditions were adopted.
(§1) The A549 cells were cultured in a 24-well dish at 4×10^4 cells/well, and the culture medium was replaced with DMEM culture medium free from FCS the next day. The CAFs were cultured in a 24-well dish at 1×10^4 cells/well, and the culture medium was replaced with DMEM culture medium containing 1% FCS the next day.
(§2) To these culture media, solutions of hANP, hBNP, and hCNP-22 (final concentration: ten-fold serial dilution from 1×10^−11 M to 1×10^−6 M, the same amount of physiological saline was used as a control) were separately added. After 10 minutes had passed, 400 μL of cooled 70% ethanol (containing 0.1 N hydrochloric acid) was added, and ultrasonication was performed for a short time. The treated solution was lyophilized, and the cGMP level was measured using Cyclic GMP Assay kit (made by Yamasa Corp.).

[2] = tested on: cancer-associated fibroblasts (CAFs); experiment: Changes in the intracellular cGMP level in response to natriuretic peptide stimulus, CAFs; assay type: cell-based, human; conditions: 1×10^−11 M to 1×10^−6 M, 10 minutes, FIG. 1B
Procedure: For obtaining CAFs (cancer-associated fibroblasts), tissue harvested from a patient having lung cancer surgery was subjected to primary culture after the consent of the patient was obtained. The cells were then cultured in DMEM culture medium containing 10% FCS under 5% CO2 at 37° C., and the cells of the 5th and earlier passages were used.
as §1, §2

[3] = tested on: A549 cells; experiment: EMT induced by TGF-β1 in A549 cells (morphology, quantitative RT-PCR); assay type: cell-based, human; conditions: for effect of suppressing EMT: concentration of 1 μM, summary of Example 2
Procedure: Using a 6-well dish, the A549 cells were cultured at 1×10^5 cells/well, and the culture medium was replaced with DMEM culture medium free from FBS the next day. After 24 hours of culture, the cells were used in the following experiment.
An ANP group (a hANP solution was added (final concentration: 1 μM)) and a control group (the same amount of physiological saline was added) were prepared, and after 2 hours from the addition (of the hANP solution or the physiological saline) to the A549 cells, TGF-β1 was added so that the final concentration would be 0.125, 0.25, 0.5, 1.0, and 2.0 ng/mL. After 24 hours had passed, the morphological change in the cells was observed under a microscope and photographed (FIG. 2).
Then, total RNA was recovered from the above prepared ANP group and control group using TRIZOL total RNA isolation reagent (made by Invitrogen), cDNA was synthesized using reverse transcriptase, and the mRNA levels of E-cadherin, N-cadherin, VEGF-A, PDGF-B, TNF-α, and IL-6 were measured by quantitative RT-PCR. The mRNA level of each intended gene was calculated as the relative ratio of the mRNA amount of the gene to that of the housekeeping gene 36B4 measured at the same time. In the Examples below, unless otherwise stated, the mRNA levels were obtained through the same calculation.
It is known that in EMT, the expression of E-cadherin decreases while the expression of N-cadherin increases. The expression ratio of the two kinds of cadherin (N-cad/E-cad) is considered to be useful as an indicator of the degree of EMT.

[4] = tested on: CAFs; experiment: Production of cancer exacerbation factors by CAFs under TGF-β1 stimulus (quantitative RT-PCR); assay type: cell-based, human; conditions: test substance 1 μM, TGF-β1 0.125-2.0 ng/mL, 24 hours, mRNA level, FIG. 5
Procedure: Using a 6-well dish, the CAFs were cultured at 5×10^4 cells/well, and the culture medium was replaced with DMEM culture medium containing 1% FBS the next day. After 24 hours of culture, the cells were used in the following experiment.
A CNP group (a hCNP-22 solution was added (final concentration: 1 μM)) and a control group (the same amount of physiological saline was added) were prepared, and after 2 hours from the addition (of the hCNP-22 solution or the physiological saline) to the CAFs, TGF-β1 was added so that the final concentration would be 0.125, 0.25, 0.5, 1.0, and 2.0 ng/mL. After 24 hours had passed, total RNA was recovered using TRIZOL total RNA isolation reagent, cDNA was synthesized using reverse transcriptase, and the mRNA levels of VEGF-A, TGF-β1, TNF-α, and IL-6 were measured by quantitative RT-PCR.

[5] = tested on: tumor cells; conditions: reports by Vesely et al.; cited from earlier work
[6] = tested on: A549 cells co-cultured with CAFs; experiment: Co-culture system of cancer cells and CAFs (mRNA of the A549 cells); assay type: cell-based, human; conditions: each test substance 1 μM
Procedure: In a 6-well dish, the A549 cells were cultured at 1×10^5 cells/well. The culture medium was replaced with DMEM culture medium free from FBS the next day, and the cells were further cultured for 24 hours. In a 6-well dish having a cell culture insert (1.0 μm pore size, made by BD), the CAFs were cultured at 5×10^4 cells/well. The culture medium was replaced with DMEM culture medium containing 1% FBS the next day, and the cells were further cultured for 24 hours. To each culture medium of the two kinds of cells, test substances were separately added to prepare test substance addition groups. Control groups with no test substance were also prepared. After two hours of culture, these were subjected to co-culture. The test substance addition groups were ANP groups containing hANP at a final concentration of 1 μM, CNP groups containing hCNP-22 at a final concentration of 1 μM, and ANP+CNP groups containing both hANP and hCNP-22 each at a final concentration of 1 μM. Each of the groups were prepared by adding the test substance to each culture medium of the two kinds of cells.
On the 6-well dish of A549 cells treated as above, the above cell culture insert with the CAFs was placed to prepare a co-culture experimental model where only the culture media could pass through the cell culture insert. After 24, 48, and 72 hours of culture, total RNA of the A549 cells only was recovered, cDNA was synthesized, and the mRNA levels of E-cadherin, N-cadherin, VEGF-A, PDGF-B, and IL-6 were measured by quantitative RT-PCR (FIGS. 6 to 8). The experiment using ANP alone (ANP groups: FIG. 6), the experiment using CNP alone (CNP groups: FIG. 7), and the experiment using ANP and CNP in combination (ANP+CNP group: FIG. 8) were independently conducted, where control groups were separately set for each experiment.

[7] = tested on: A549 cells and CAFs; experiment: Mouse models having transplanted cancer cells and CAFs, administration started after tumor tissue was established (Example 6); assay type: in vivo; conditions: hCNP-22 alone 2.5 μg/kg/min, started 2 weeks after transplantation, 4 weeks, FIG. 10
Procedure: In this Example and Example 6, 5-week-old male immunodeficient mice (KSN mice, Japan SLC, Inc.) were used. The osmotic pumps used were MODEL2004 (for 28-day administration) made by ALZET (Cupertino, Calif.). A mixed suspension of the A549 cells and the CAFs was prepared using DMEM free from FBS so as to contain the A549 cells at 1×10^6 cells/100 μL and the CAFs at 0.5×10^6 cells/100 μL. The mixed suspension in an amount of 100 μL per mouse was subcutaneously injected in the back of the immunodeficient mice. […] After 2 weeks of observation from the injection of the cell suspension, the mice to which the mixed suspension had been injected were randomly divided into 4 groups (control group, ANP group, CNP group, and ANP+CNP group), and an osmotic pump appropriately adjusted for each group as shown below was subcutaneously implanted to start administration. • Control group and A549 group: physiological saline was administered • ANP group: hANP was administered at 0.5 μg/kg/min • CNP group: hCNP-22 was administered at 2.5 μg/kg/min • ANP+CNP group: hANP was administered at 0.5 μg/kg/min and hCNP-22 was administered at 2.5 μg/kg/min Observation was further continued for 4 weeks after the start of administration, the tumor size at the cell injection site was measured weekly, and tumor volume was calculated in the same way as in Example 5 (FIG. 10).

[8] = A549 cells, test substance 1 μM, mRNA level, FIG. 3

Row | Substance | intracellular cGMP level of the A549 cells [1] | cGMP level of the CAFs [2] | effect of suppressing EMT [3] | gene expression of the growth factors (VEGF-A, TGF-β1) and the inflammatory cytokines (TNF-α, IL-6) increased by the TGF-β1 stimulus in CAFs [4] | growth-suppressing activity on tumor (cancer) cells [5] | also measured
1 | hBNP: 32-amino acid BNP of human origin (SPKMVQGSGCFGRKMDRISSSSGLGCKVLRRH: SEQ ID NO: 3), GC-A agonist | increased the intracellular cGMP level of the A549 cells in a concentration-dependent manner | did not show such an action | significantly suppressing EMT | did not show any effect on CAFs | does not have such a growth-suppressing activity | 
2 | hCNP-22: 22-amino acid CNP-22 of human origin (GLSKGCFGLKLDRIGSMSGLGC: SEQ ID NO: 7), GC-B agonist (GLSKGCFGLKLDRIGSMSGLGC; listed as Homo sapiens) | did not show such increase | increased the cGMP level of the CAFs in a concentration-dependent manner | did not show such an effect at all | significantly suppressed |  | morphological change in the cells associated with EMT induced by the TGF-β1 stimulus ([3]; A549 cells, test substance 1 μM, 24 hours after TGF-β1, FIG. 2): the same as those of the control; gene expression of the growth factors (VEGF-A, PDGF-B) and the inflammatory cytokines (TNF-α, IL-6) increased by EMT induced by the TGF-β1 stimulus ([3]; A549 cells, test substance 1 μM, TGF-β1 0.125-2.0 ng/mL, 24 hours, mRNA level, FIG. 3): the same as those of the control; decrease in the expression of E-cadherin induced by the TGF-β1 stimulus [3, 8]: the same as those of the control; increase in the expression of N-cadherin induced by the TGF-β1 stimulus [3, 8]: the same as those of the control; gene expression of the growth factors (VEGF-A, PDGF-B) and inflammatory cytokine (IL-6) increased in the co-culture ([6]; A549 cells co-cultured with CAFs 24, 48, 72 hours, FIGS. 6 to 8): could not suppress; expression ratio of N-cadherin/E-cadherin (N-cad/E-cad), indicator of EMT, in the co-culture ([6]; A549 cells co-cultured with CAFs, FIGS. 6D, 7D, 8D): did not show any effect; tumor growth as compared with the control group [7]: showed an effect of tumor growth suppression
3 | kalliuretic peptide: peptide in reports by Vesely et al., sequence not likely to contribute to binding to GC-A (SSDRSALLKSKLRALLTAPR; Kaliuretic peptide; UniProt P01160 104-123, looked up) |  |  |  |  | the same or stronger growth-suppressing activity | 
4 | long acting natriuretic peptide: peptide in reports by Vesely et al., sequence not likely to contribute to binding to GC-A (NPMYNAVSNADLMDFKNLLDHLEEKMPLED; Long-acting natriuretic peptide; UniProt P01160 26-55, looked up) |  |  |  |  | the same or stronger growth-suppressing activity | 
5 | vessel dilator: peptide in reports by Vesely et al., sequence not likely to contribute to binding to GC-A (EVVPPQVLSEPNEEAGAALSPLPEVPPWTGEVSPAQR; Vessel dilator; UniProt P01160 56-92, looked up) |  |  |  |  | the same or stronger growth-suppressing activity | 

Reference: patent US9233143B2, “Medicinal agent for preventing exacerbation of malignant tumor, comprising combination of natriuretic peptide receptor GC-A and GC-B agonists” (National Cerebral and Cardiovascular Center, priority 2011, dated 2016)
